Measurements reported in patent publication US20250375492A1, “MONASCUS PILOSUS STRAIN, COMPOSITION FOR PREVENTING OR TREATING NONALCOHOLIC FATTY LIVER DISEASE AND USE OF SAID MONASCUS PILOSUS” (SUNWAY BIOTECH CO., LTD., priority 2024, published 2025).

Test system: gut microbiota of nonalcoholic fatty liver mice
Test: Gut microbiota analysis (full-length 16S sequencing) in nonalcoholic fatty liver mice
Type: in vivo, C57BL/6J mice
Settings: compared with the HFD group; L008, H008 and Msol groups; FIG. 9
Method: The experiment used 7-week-old male C57BL/6J strain mice purchased from the National Laboratory Animal Center. The initial body weight was about 23 g, with 12 mice per group. They were housed at 60% relative humidity, room temperature 25±1° C., with a 12-hour light cycle (8:00-20:00). The experiment lasted for 22 weeks, during which food and water were provided ad libitum. Body weight, food intake, and water consumption were measured weekly.
Embodiment 4 uses a high-fat feed to induce a nonalcoholic fatty liver animal model. The animal experiment lasted for 22 weeks. Animal test feed was prepared according to the formula of Research Diets (New Brunswick, NJ, USA) for D12450B and D12492. The grouping is as follows: • i. […]
Total genomic DNA was extracted from samples (QIAamp PowerFecal DNA, Qiagen). DNA concentration was determined using a Qubit 4.0 fluorometer (Thermo Scientific) and adjusted to 1 ng/μL. […] PCR reactions were performed using KAPA HiFi HotStart ReadyMix (Roche): 95° C., 3 minutes; 20-27 cycles (sample-dependent): 95° C., 30 seconds, 57° C., 30 seconds, 72° C., 60 seconds; 72° C. for 5 minutes, and final storage at 4° C. PCR products were monitored on 1% agarose gel. […]
Sample data were demultiplexed from the raw data based on Barcode sequences and PCR amplification primer sequences. […] The sequences with primers removed were used as QIIME2 DADA2 Input Reads. […]

Substance: Monascinol [Msol]
- microbial population (abundance) of Blautia in the intestine: increase
- microbial population (abundance) of Intestinimonas in the intestine: increase
